# Assay results: patent US20080235824A1, “Use of Esterase Genes as Selectable Markers for Transforming Plant Cells” (priority 2006, published 2008)
# Experiments:
# [1] = tested on: geranium petiole explants; assay: Survival of geranium petiole explants on regeneration medium with detergents; format: cell-based, Pelargonium X hortorum; settings: for Survival of geranium petiole explants on regeneration medium: surviving/total explants
# Protocol: Tween 20, a nonionic, fatty acid ester detergent, was evaluated as a potential selective agent for use in geranium (Pelargonium X hortorum) transformation experiments by placing geranium petiole explants into tissue culture with the addition to Tween 20 to the regeneration (shooting) medium normally used in geranium transformations (Robichon et al., 1995). Tween 20 was added at three concentrations: 1%, 0.1% and 0.01%. Each treatment consisted of 40 sterilized petiole explants placed in four tissue culture plates carrying 10 explants each. Survival of the explants was assayed weekly over four weeks on these media. Potential selective agent Span 20, also a nonionic, fatty acid ester detergent, was similarly evaluated, except that concentrations of 1%, 0.5% and 0.25% were evaluated over a twelve week period of time. The nonionic detergent Triton X-100, which is not a fatty acid ester detergent, was included for comparative purposes.
# [2] = tested on: tobacco cultivar Xanthi leaf explants; assay: Agrobacterium transformation of tobacco with selection on detergent or kanamycin; format: cell-based, Nicotiana tabacum; settings: for Transformation frequency (%): confirmed by PCR
# Excerpt: Transgenic tobacco (Nicotiana tabacum) cultivar “Xanthi” plants were created using the Agrobacterium tumefaciens DNA delivery method [Horsch et al., 1985] using pIPG833. Selection was on 1% or on 0.05% Tween 20 added to both shoot and root regeneration media. As a control for comparative purposes, pIPG786 was used (carrying the nptII gene for kanamycin resistance) for transformation and 100 micrograms/ml kanamycin was used for selection.
# Transgenic tobacco (Nicotiana tabacum) cultivar “Xanthi” plants were created using the Agrobacterium tumefaciens DNA delivery method [Horsch et al., 1985] using pIPG833. Selection was on 1% or on 0.05% Span 20 added to both shoot and root regeneration media.
# Transgenic tobacco (Nicotiana tabacum) cultivar “Xanthi” plants were created using the Agrobacterium tumefaciens DNA delivery method [Horsch et al., 1985] using pIPG875. Selection was on 1% Span 20 added to the shoot regeneration medium and 0.05% Span 20 added to the root regeneration medium.
# [3] = tested on: rice var. TP-309 callus produced from seeds; assay: Agrobacterium transformation of rice with selection on Span 20; format: cell-based, Oryza sativa japonica var. TP-309; settings: for No. of rooted shoots / Transformation frequency (%) / No. of shoots emerged from seed-derived callus: rice TP-309, pIPG833 bovine PGE, 60 explants; for Transformation frequency (%): confirmed by PCR; for No. of shoots emerged from seed-derived callus: half in root medium
# Excerpt: Transgenic rice (Oryza sativa japonica var. TP-309) plants were created using the Agrobacterium tumefaciens DNA delivery method and pIPG833, using callus produced from seeds (Hiei et al., 1997). Selection of was on 1% and 0.5% Span 20 added to shoot regeneration medium; any shoots that emerged were excised from the callus and transferred to root regeneration medium supplemented with Span 20 at one half the concentration used in the shoot regeneration medium. Span 20 at 1% concentration killed over 90% of the callus pieces after 15 weeks and since no shoots emerged, the experiment was terminated. However, three shoots out of 60 rice seeds initially placed into tissue culture emerged on Span 20 and two of these were positive for bovine PGE.
# [4] = tested on: tobacco cultivar Xanthi leaf explants; assay: Agrobacterium transformation of tobacco with selection on detergent or kanamycin; format: cell-based, Nicotiana tabacum; settings: pIPG833 bovine PGE, 0.5% Span 20, 70 explants
# [5] = tested on: geranium cv. Avenida leaf petiole explants; assay: Agrobacterium transformation of geranium with selection on Span 20 or hygromycin; format: cell-based, Pelargonium X hortorum; settings: for No. of rooted shoots / Transformation frequency (%) / No. of independent petiole explants forming shoots: geranium Avenida, pIPG833 bovine PGE, 160 explants; for Transformation frequency (%): confirmed by PCR; for No. of independent petiole explants forming shoots: half in root medium; for Leaf petioles killed: Span 20 at 1%
# Excerpt: Transgenic geranium (Pelargonium X hortorum) cv. “Avenida” plants were created using the Agrobacterium tumefaciens DNA delivery method [Riggs et al., 2001; Sun et al., 2006] using pIPG833. Selection of leaf petiole explants was on 1%, 0.5% and 0.25% Span 20 added to shoot regeneration medium; beginning after three weeks, any shoots that emerged were excised from the petiole piece and transferred to root regeneration medium supplemented with Span at one half the concentration used in the shoot regeneration medium. As a control for comparative purposes, pIPG835 was used (carrying the hygromycin antibiotic resistance gene) for transformation and 10 micrograms/ml hygromycin was used for selection. Span 20 at 1% concentration killed 35% of the leaf petioles after three weeks, and 100% of the petioles after 10 weeks, and no shoots emerged. Span 20 at 0.5% concentration was highly efficient for geranium transformation, allowing no escapes and giving the same confirmed transformation frequency as Span 20 at 0.25%.
# rice grain explants = assay: Survival of rice grain explants on regeneration medium with Span 20; format: cell-based, Oryza sativa japonica var. TP-309; settings: for Survival of rice grain explants on regeneration medium: surviving/total explants
# Protocol: Span 20 was evaluated as a potential selective agent for use in transformation of rice (Oryza sativa japonica var. TP-309) in a manner similar to that described in Examples 1 and 2, except that the regeneration (shooting) medium used was appropriate for regeneration of rice from callus produced from seeds (Hiei et al., 1997). Selection of rice normally requires longer periods of time than geranium or tomato.
# [6] = tobacco Xanthi, nematode lipase (pIPG875), 1% Span 20 shoot medium, 0.05% root medium, 50 explants
# [7] = tobacco Xanthi, pIPG833 bovine PGE, 0.5% Span 20, 70 explants
# [8] = tobacco Xanthi, pIPG833 bovine PGE, 1% Span 20, 75 explants
smiles,measurement,setting,value
CCCCCCCCCCCC(=O)OCC(O)C1OCC(O)C1O (stereo not drawn) [Span 20],Survival of geranium petiole explants on regeneration medium,"[1]; 0.5% detergent, Week 1",46/46
same,Survival of geranium petiole explants on regeneration medium,"[1]; 0.5% detergent, Week 3",35/46
same,Survival of geranium petiole explants on regeneration medium,"[1]; 0.5% detergent, Week 7",23/46
same,Survival of geranium petiole explants on regeneration medium,"[1]; 0.5% detergent, Week 12",5/46
same,Survival of geranium petiole explants on regeneration medium,"[1]; 1% detergent, Week 1",114/114
same,Survival of geranium petiole explants on regeneration medium,"[1]; 1% detergent, Week 3",74/114
same,Survival of geranium petiole explants on regeneration medium,"[1]; 1% detergent, Week 7",11/114
same,Survival of geranium petiole explants on regeneration medium,"[1]; 1% detergent, Week 12",0/114
same,Killing of geranium explants in tissue culture (in words),[1]; summary of Table 1,required twelve weeks to completely kill all geranium explants at the 1% level
same,Tissue provided with pIPG833 producing shoots,[2]; regeneration medium with 0.05% detergent,41%
same,Tobacco leaf material provided with bovine PGE on pIPG833 producing green shoots,[2]; regeneration medium with 1% detergent,17%
same,No. of independent calli forming shoots,[2]; [6],23
same,No. of rooted shoots,[2]; [6],10
same,Transformation frequency (%),[2]; [6],39%
same,Transformation efficiency,"[2]; tobacco Xanthi, pIPG833, detergent at the 0.05% level",12%
same,No. of independent calli forming shoots,[2]; [7],29
same,Transformation frequency (%),[2]; [7],12%
same,No. of rooted shoots,[2]; [8],13
same,Transformation frequency (%),[2]; [8],8%
same,No. of independent calli forming shoots,"[2]; tobacco Xanthi, pIPG833 bovine PGE, 1% Span 20 in shoot and root media, 75 explants",13
same,Fate of shoots on rooting medium,"[2]; tobacco, pIPG875 nematode lipase, 0.05% Span 20 on rooting medium",more than half of the shoots died
same,No. of rooted shoots,[3]; 0.5% Span 20,2
same,Transformation frequency (%),[3]; 0.5% Span 20,3%
same,No. of shoots emerged from seed-derived callus,[3]; 0.5% Span 20 shoot medium,3
same,No. of rooted shoots,[3]; 1% Span 20,0
same,Transformation frequency (%),[3]; 1% Span 20,0%
same,No. of shoots emerged from seed-derived callus,[3]; 1% Span 20 shoot medium,0
same,Callus pieces killed,"[3]; rice, pIPG833, Span 20 at 1%, after 15 weeks",over 90%
same,No. of rooted shoots,[4],28
same,No. of rooted shoots,[5]; 0.25% Span 20,33
same,Transformation frequency (%),[5]; 0.25% Span 20,4%
same,No. of independent petiole explants forming shoots,[5]; 0.25% Span 20 shoot medium,33
same,No. of rooted shoots,[5]; 0.5% Span 20,6
same,Transformation frequency (%),[5]; 0.5% Span 20,4%
same,No. of independent petiole explants forming shoots,[5]; 0.5% Span 20 shoot medium,6
same,No. of rooted shoots,[5]; 1% Span 20,0
same,Transformation frequency (%),[5]; 1% Span 20,0%
same,No. of independent petiole explants forming shoots,[5]; 1% Span 20 shoot medium,0
same,Nontransgenic escape plants,"[5]; geranium, pIPG833, Span 20 at 0.25% in shooting medium and 0.125% in rooting medium",81%
same,Leaf petioles killed,"[5]; geranium, pIPG833, after 10 weeks",100%
same,Leaf petioles killed,"[5]; geranium, pIPG833, after three weeks",35%
same,Survival of rice grain explants on regeneration medium,"rice grain explants; 0.5% Span 20, Week 4",60/60
same,Survival of rice grain explants on regeneration medium,"rice grain explants; 0.5% Span 20, Week 14",12/60
same,Survival of rice grain explants on regeneration medium,"rice grain explants; 0.5% Span 20, Week 20",2/60
same,Survival of rice grain explants on regeneration medium,"rice grain explants; 1% Span 20, Week 4",60/60
same,Survival of rice grain explants on regeneration medium,"rice grain explants; 1% Span 20, Week 14",5/60
same,Survival of rice grain explants on regeneration medium,"rice grain explants; 1% Span 20, Week 20",0/60
same,Killing of rice explants in tissue culture (in words),"rice grain explants; 1% Span 20, summary of Table 3",completely killed all rice explants in twenty weeks
